According to US4647564A, “Inotropic agents” (Eli Lilly and Company, priority 1986, dated 1987):

Assays:
[1] = test system: Ventricular contractility in the conscious dog; experiment: Ventricular contractility in the conscious dog (oral); type: in vivo; settings: Canis lupus familiaris, oral (gelatin capsules), by interpolation, read-out: ED50 (dose required to produce a peak increase in contractility of 50%)
Source text: (§1) The compounds of Formula I are particularly useful as inotropic agents due to their potency, long action of effect, and oral efficacy and are therefore useful in the treatment and prevention of heart failure. For example, the compounds of this invention were examined as to their pharmacodynamic effects on the following test systems. For comparison, 1,3-dihydro-5-(1,4,5,6-tetrahydro-6-oxo-3-pyridazinyl)-2H-indol-2-one (Compound A) and 4,4-dimethyl-1,2,3,4-tetrahydro-6-(1,4,5,6-tetrahydro-6-oxo-3-pyridazinyl)quinolin-2-one (Compound B) as taught in U.S. Pat. No. 4,258,185 (although named somewhat differently), were also tested.
Mongrel dogs of either sex weighing 15-36 kg were chronically instrumented to monitor peak systolic pressure, heart rate, left ventricular pressure and its first derivative, LVdP/dt at 60 mm of mercury. Under halothane-nitrous oxide anesthesia, a precalibrated Konigsberg P22 Pressure Transducer was implanted into the left ventricle through a stab wound at the apex. Following recovery from surgery, a minimum of two weeks was allowed to train the dogs to lie quietly for four-hour periods. This conditioning was necessary to obtain stable, reproducible results from day to day. Dogs were fasted eighteen hours before an experiment. Gross behavioral observations of animals were made throughout each study. Compounds or placebo (lactose) were administered in gelatin capsules. The maximum effects on contractility at various dose levels were determined and plotted and the dose required to produce a 50-percent increase in contractility (ED50) was determined by interpolation.

Cat papillary muscles = experiment: Positive inotropic activity in isolated cat papillary muscles; type: cell-based; settings: Felis catus, control = 100 percent, average of 2 to 8 muscles, read-out: Contractility of papillary muscle, peak response; for activity at 100 µM: 10^-4 M; for activity at 10 µM: 10^-5 M
Source text: as §1
Cats of either sex were anesthetized with Metofane (1,1-difluoro-2,2-dichloroethyl methyl ether, Pittman-Moore). Their hearts were immediately removed and the papillary muscles dissected and suspended in individual organ baths. A platinum hook secured one end of the muscle to an electrode mounted in the bottom of the bath, and a silk thread attached the tendon to a Statham isometric transducer. The baths contained Krebs-Henseleit solution (36° C., bubbled with 95 percent oxygen--5 percent carbon dioxide) of the following millimolar composition: NaCl, 118; KCl, 4.5; CaCl2, 2.5; KH2 PO4, 1.1; MgSO4, 1.2; NaHCO3, 25; and glucose, 11.
A base-line tension of 1.5 g was applied to each muscle. Square-wave pulses (5.0 msec. in duration, three times threshold voltage) delivered through the hook electrode and a second electrode positioned near the top of the muscle evoked 12 contractions/minute, which were recorded on a Grass polygraph. After the muscles had equilibrated for 60 minutes, the recorder gain was adjusted so that the pen deflected 10 mm. The test compound was introduced in a solution of normal saline in an amount to bring the final concentration of the compound to 10^-5 or 10^-4 molar. Increases in contractility were tabulated as millimeters of pen deflection in excess of the baseline value. In each experiment the maximum contractility was measured. Test results are summarized in Table I and are expressed as percent of control (control=100 percent). Values are the average of results from 2 to 8 muscles.

[2] = test system: Ventricular contractility in the anesthetized dog; experiment: Ventricular contractility in the anesthetized dog (i.v.); type: in vivo; settings: Canis lupus familiaris, iv, i.v. bolus, by interpolation, read-out: ED50 (dose required to produce a peak increase in contractility of 50%)
Source text: as §1
Mongrel dogs of either sex ranging in weight for 7 to 14 kg were used. Anesthesia was induced with sodium pentobarbital (30 mg/kg, i.v.) and maintained with supplemental doses as required. A positive-pressure pump was used to ventilate the dogs through an endotracheal tube (18 strokes/minute, 20 ml/kg stroke^-1), and a heating pad kept the body temperature at 37°-38° C.
Femoral arterial blood pressure was measured through a polyethylene catheter filled with heparin solution (16 units/ml) and connected to a Statham pressure transducer. A strain-gauge arch sutured to the right ventricle of the heart measured cardiac contractility. Tension on the gauge was adjusted to 50 g and the gain of the recorder (Beckman dynograph) was set so that 50 g caused a 10-mm pen deflection. Cardiac contractile tension was measured as millimeters of pen deflection or grams of tension. The test compounds were administered as an i.v. bolus (2-5 ml) in a normal saline vehicle following a 30-45 minute equilibrium period. […] The maximum effects on contractility at various dose levels were determined and plotted and the dose required to produce a 50 % increase in contractility (ED50) was determined by interpolation.

Row | Compound | ED50 [1] | activity at 100 µM (Cat papillary muscles) | activity at 10 µM (Cat papillary muscles) | ED50 [2]
1 | O=C1CCC(c2ccc3c(c2)CC(=O)N3)=NN1 [Compound A, 1,3-dihydro-5-(1,4,5,6-tetrahydro-6-oxo-3-pyridazinyl)-2H-indol-2-one, reference compound] | 0.5 mg/kg | 152% | 147% | 0.01 mg/kg
2 | CC1(C)CC(=O)Nc2ccc(C3=NNC(=O)CC3)cc21 [Compound B, 4,4-dimethyl-1,2,3,4-tetrahydro-6-(1,4,5,6-tetrahydro-6-oxo-3-pyridazinyl)quinolin-2-one, reference compound] | > 0.5 mg/kg | 169% | 178% | 0.048 mg/kg
3 | CC1(C)C(=O)Nc2ccc(C3=NNC(=O)CC3)cc21 [Example 1, 1,3-Dihydro-3,3-dimethyl-5-(1,4,5,6-tetrahydro-6-oxo-3-pyridazinyl)-2H-indol-2-one] | 0.025 mg/kg | 208% | 202% | 0.005 mg/kg
4 | CN1C(=O)C(C)(C)c2cc(C3=NNC(=O)CC3)ccc21 [Example 2, 1,3-Dihydro-1,3,3-trimethyl-5-(1,4,5,6-tetrahydro-6-oxo-3-pyridazinyl)-2H-indol-2-one] | > 0.4 mg/kg | – | – | 0.01 mg/kg
5 | CC1CC(=O)NN=C1c1ccc2c(c1)C(C)(C)C(=O)N2C (stereo not shown) [Example 3, 1,3-Dihydro-1,3,3-trimethyl-5-(1,4,5,6-tetrahydro-4-methyl-6-oxo-3-pyridazinyl)-2H-indol-2-one] | – | – | – | 0.005 mg/kg
6 | Cc1cc(C2=NNC(=O)CC2)cc2c1NC(=O)C2(C)C [Example 4, 1,3-Dihydro-3,3,7-trimethyl-5-(1,4,5,6-tetrahydro-6-oxo-3-pyridazinyl)-2H-indol-2-one] | – | – | – | 0.0085 mg/kg
7 | Cc1cc2c(cc1C1=NNC(=O)CC1)C(C)(C)C(=O)N2 [Example 5, 1,3-Dihydro-3,3,6-trimethyl-5-(1,4,5,6-tetrahydro-6-oxo-3-pyridazinyl)-2H-indol-2-one] | – | – | – | 0.02 mg/kg
8 | CC1CC(c2ccc3c(c2)C(C)(C)C(=O)N3)=NNC1=O (stereo not shown) [Example 6, 1,3-Dihydro-3,3-dimethyl-5-(1,4,5,6-tetrahydro-5-methyl-6-oxo-3-pyridazinyl)-2H-indol-2-one] | – | – | – | 0.021 mg/kg
9 | CC1CC(=O)NN=C1c1ccc2c(c1)C(C)(C)C(=O)N2 (stereo not shown) [Example 7, 1,3-Dihydro-3,3-dimethyl-5-(1,4,5,6-tetrahydro-4-methyl-6-oxo-3-pyridazinyl)-2H-indol-2-one] | 0.05 mg/kg | – | – | 0.0025 mg/kg
10 | CC1C(=O)Nc2ccc(C3=NNC(=O)CC3)cc21 (stereo not shown) [Example 8, 1,3-Dihydro-3-methyl-5-(1,4,5,6-tetrahydro-6-oxo-3-pyridazinyl)-2H-indol-2-one] | 0.025 mg/kg | – | – | 0.0063 mg/kg
